Legend:
HT29 cells = test: Antiproliferative activity against HT29 cells (Cell Titer-Lumi, ATP content); format: cell-based; settings: Homo sapiens, HT-29, 72 after compound addition, read-out: HT-29 cells Anti-proliferative activity (IC50 for the inhibition against HT-29 cell growth)
In short: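 Growth inhibition IC50 derived from luminescent ATP content after 72 (units as printed) of compound exposure over a dilution gradient. Seeding density 3000 cells per well; compound added once cells had adhered overnight.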

Wee-1 kinase = biological target: T1, Wee-1 kinase (Homo sapiens, UniProt P30291); test: Inhibitory activity against Wee-1 kinase (Lanthra Screen Wee-1 kinase kit, Tracer 178); format: binding; settings: Wee-1 kinase 5 nM, Tracer 178 50 nM, 1 h room temperature
T1 construct: purchased Invitrogen
T1 sequence (P30291 whole entry): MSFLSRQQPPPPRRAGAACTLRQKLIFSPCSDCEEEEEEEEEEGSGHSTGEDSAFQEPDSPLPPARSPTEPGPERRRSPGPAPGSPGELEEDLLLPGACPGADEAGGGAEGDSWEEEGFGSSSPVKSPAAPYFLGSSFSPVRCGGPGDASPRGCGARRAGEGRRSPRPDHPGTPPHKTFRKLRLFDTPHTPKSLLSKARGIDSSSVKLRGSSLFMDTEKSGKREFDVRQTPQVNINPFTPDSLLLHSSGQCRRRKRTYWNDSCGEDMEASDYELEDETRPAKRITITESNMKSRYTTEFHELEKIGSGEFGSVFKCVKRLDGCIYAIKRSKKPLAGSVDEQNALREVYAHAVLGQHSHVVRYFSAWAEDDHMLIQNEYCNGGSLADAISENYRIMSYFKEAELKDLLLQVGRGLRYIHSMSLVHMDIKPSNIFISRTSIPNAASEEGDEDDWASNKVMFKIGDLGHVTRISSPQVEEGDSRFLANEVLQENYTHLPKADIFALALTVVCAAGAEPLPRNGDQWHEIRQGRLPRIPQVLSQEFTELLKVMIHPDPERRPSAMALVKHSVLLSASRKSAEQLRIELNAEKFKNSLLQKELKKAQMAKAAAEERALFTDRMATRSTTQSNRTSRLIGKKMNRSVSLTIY
In short: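 Compound gradient in DMSO mixed with 5 nM Wee-1, 2 nM Eu-anti-GST antibody and 50 nM Tracer 178 (all final). Read after one hour at room temperature; IC50 calculated against the DMSO solvent control.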

SMILES	IC50 (HT29 cells) [µM]	IC50 (Wee-1 kinase) [µM]
C=CCn1c(=O)c2cnc(Nc3ccc(N4CCC(N5CCC(F)(F)CC5)CC4)c(C)c3)nc2n1-c1ccc(=O)n(C(C)C)n1 [Compound 152]	≤ 1	≤ 0.03
C=CCn1c(=O)c2cnc(Nc3ccc(N4CCC(N5CCC(F)(F)CC5)CC4)c(OC)c3)nc2n1-c1ccc(=O)n(C(C)C)n1 [Compound 153]	≤ 1	≤ 0.03
C=CCn1c(=O)c2cnc(Nc3ccc(N4CC5(CNC5)C4)cc3)nc2n1-c1ccc(=O)n(C(C)C)n1 [Compound 154]	1 to 3	≤ 0.03
C=CCn1c(=O)c2cnc(Nc3ccc(N4CC5(CNC5)C4)c(C)c3)nc2n1-c1ccc(=O)n(C(C)C)n1 [Compound 155]	≤ 1	≤ 0.03
C=CCn1c(=O)c2cnc(Nc3ccc(N4CC5(CNC5)C4)c(OC)c3)nc2n1-c1ccc(=O)n(C(C)C)n1 [Compound 156]	1 to 3	≤ 0.03
C=CCn1c(=O)c2cnc(Nc3ccc(N4CC5(CN(C)C5)C4)cc3)nc2n1-c1ccc(=O)n(C(C)C)n1 [Compound 157]	≤ 1	≤ 0.03
C=CCn1c(=O)c2cnc(Nc3ccc(N4CC5(CN(C)C5)C4)c(C)c3)nc2n1-c1ccc(=O)n(C(C)C)n1 [Compound 158]	≤ 1	≤ 0.03
C=CCn1c(=O)c2cnc(Nc3ccc(N4CC5(CN(C)C5)C4)c(OC)c3)nc2n1-c1ccc(=O)n(C(C)C)n1 [Compound 159]	≤ 1	≤ 0.03
C=CCn1c(=O)c2cnc(Nc3ccc(N4CC5(CCNC5)C4)cc3)nc2n1-c1ccc(=O)n(C(C)C)n1 [Compound 160]	1 to 3	≤ 0.03
C=CCn1c(=O)c2cnc(Nc3ccc(N4CC5(CCNC5)C4)c(C)c3)nc2n1-c1ccc(=O)n(C(C)C)n1 [Compound 161]	1 to 3	≤ 0.03
C=CCn1c(=O)c2cnc(Nc3ccc(N4CC5(CCNC5)C4)c(OC)c3)nc2n1-c1ccc(=O)n(C(C)C)n1 [Compound 162]	≤ 1	≤ 0.03
C=CCn1c(=O)c2cnc(Nc3ccc(N4CC5(CCN(C)C5)C4)cc3)nc2n1-c1ccc(=O)n(C(C)C)n1 [Compound 163]	≤ 1	≤ 0.03
C=CCn1c(=O)c2cnc(Nc3ccc(N4CC5(CCN(C)C5)C4)c(C)c3)nc2n1-c1ccc(=O)n(C(C)C)n1 [Compound 164]	≤ 1	≤ 0.03
C=CCn1c(=O)c2cnc(Nc3ccc(N4CC5(CCN(C)C5)C4)c(OC)c3)nc2n1-c1ccc(=O)n(C(C)C)n1 [Compound 165]	≤ 1	≤ 0.03
C=CCn1c(=O)c2cnc(Nc3ccc(N4CC5(CCNCC5)C4)cc3)nc2n1-c1ccc(=O)n(C(C)C)n1 [Compound 166]	1 to 3	0.03 to 0.1
C=CCn1c(=O)c2cnc(Nc3ccc(N4CC5(CCNCC5)C4)c(C)c3)nc2n1-c1ccc(=O)n(C(C)C)n1 [Compound 167]	1 to 3	0.03 to 0.1
C=CCn1c(=O)c2cnc(Nc3ccc(N4CC5(CCNCC5)C4)c(OC)c3)nc2n1-c1ccc(=O)n(C(C)C)n1 [Compound 168]	1 to 3	0.03 to 0.1
C=CCn1c(=O)c2cnc(Nc3ccc(N4CCC5(CNC5)C4)cc3)nc2n1-c1ccc(=O)n(C(C)C)n1 [Compound 169]	1 to 3	≤ 0.03
C=CCn1c(=O)c2cnc(Nc3ccc(N4CCC5(CNC5)C4)c(C)c3)nc2n1-c1ccc(=O)n(C(C)C)n1 [Compound 170]	≤ 1	≤ 0.03
C=CCn1c(=O)c2cnc(Nc3ccc(N4CCC5(CNC5)C4)c(OC)c3)nc2n1-c1ccc(=O)n(C(C)C)n1 [Compound 171]	≤ 1	≤ 0.03
C=CCn1c(=O)c2cnc(Nc3ccc(N4CCC5(CN(C)C5)C4)cc3)nc2n1-c1ccc(=O)n(C(C)C)n1 [Compound 172]	≤ 1	≤ 0.03

SMILES	IC50 (HT29 cells) [µM]	IC50 (Wee-1 kinase) [µM]
C=CCn1c(=O)c2cnc(Nc3ccc(N4CCC5(CN(C)C5)C4)c(C)c3)nc2n1-c1ccc(=O)n(C(C)C)n1 [Compound 173]	≤ 1	≤ 0.03
C=CCn1c(=O)c2cnc(Nc3ccc(N4CCC5(CN(C)C5)C4)c(OC)c3)nc2n1-c1ccc(=O)n(C(C)C)n1 [Compound 174]	≤ 1	≤ 0.03
C=CCn1c(=O)c2cnc(Nc3ccc(N4CCC5(CC4)CNC5)cc3)nc2n1-c1ccc(=O)n(C(C)C)n1 [Compound 175]	1 to 3	≤ 0.03
C=CCn1c(=O)c2cnc(Nc3ccc(N4CCC5(CC4)CNC5)c(C)c3)nc2n1-c1ccc(=O)n(C(C)C)n1 [Compound 176]	≤ 1	≤ 0.03
C=CCn1c(=O)c2cnc(Nc3ccc(N4CCC5(CC4)CNC5)c(OC)c3)nc2n1-c1ccc(=O)n(C(C)C)n1 [Compound 177]	≤ 1	≤ 0.03
C=CCn1c(=O)c2cnc(Nc3ccc(N4CCC5(CC4)CN(C)C5)cc3)nc2n1-c1ccc(=O)n(C(C)C)n1 [Compound 178]	≤ 1	≤ 0.03
C=CCn1c(=O)c2cnc(Nc3ccc(N4CCC5(CC4)CN(C)C5)c(C)c3)nc2n1-c1ccc(=O)n(C(C)C)n1 [Compound 179]	≤ 1	≤ 0.03
C=CCn1c(=O)c2cnc(Nc3ccc(N4CCC5(CC4)CN(C)C5)c(OC)c3)nc2n1-c1ccc(=O)n(C(C)C)n1 [Compound 180]	≤ 1	≤ 0.03
C=CCn1c(=O)c2cnc(Nc3ccc(N4CCC5(CCNCC5)CC4)cc3)nc2n1-c1ccc(=O)n(C(C)C)n1 [Compound 181]	1 to 3	≤ 0.03
C=CCn1c(=O)c2cnc(Nc3ccc(N4CCC5(CCNCC5)CC4)c(C)c3)nc2n1-c1ccc(=O)n(C(C)C)n1 [Compound 182]	≤ 1	≤ 0.03
C=CCn1c(=O)c2cnc(Nc3ccc(N4CCC5(CCNCC5)CC4)c(OC)c3)nc2n1-c1ccc(=O)n(C(C)C)n1 [Compound 183]	≤ 1	≤ 0.03
C=CCn1c(=O)c2cnc(Nc3ccc(N4CCC5(CCN(C)CC5)CC4)cc3)nc2n1-c1ccc(=O)n(C(C)C)n1 [Compound 184]	≤ 1	≤ 0.03
C=CCn1c(=O)c2cnc(Nc3ccc(N4CCC5(CCN(C)CC5)CC4)c(C)c3)nc2n1-c1ccc(=O)n(C(C)C)n1 [Compound 185]	≤ 1	≤ 0.03
C=CCn1c(=O)c2cnc(Nc3ccc(N4CCC5(CCN(C)CC5)CC4)c(OC)c3)nc2n1-c1ccc(=O)n(C(C)C)n1 [Compound 186]	≤ 1	≤ 0.03
C=CCn1c(=O)c2cnc(Nc3ccc(N4CC5(CCN5C)C4)c(C)c3)nc2n1-c1ccc(=O)n(C(C)C)n1 [Compound 187]	≤ 1	≤ 0.03
C=CCn1c(=O)c2cnc(Nc3ccc(N4CC5(CCCN5C)C4)c(C)c3)nc2n1-c1ccc(=O)n(C(C)C)n1 [Compound 188]	≤ 1	≤ 0.03
C=CCn1c(=O)c2cnc(Nc3ccc(N4CC5(CCCCN5C)C4)c(C)c3)nc2n1-c1ccc(=O)n(C(C)C)n1 [Compound 189]	≤ 1	0.03 to 0.1
C=CCn1c(=O)c2cnc(Nc3ccc(C4CCNCC4)cc3)nc2n1-c1ccc(=O)n(C(C)C)n1 [Compound 190]	≤ 1	≤ 0.03
C=CCn1c(=O)c2cnc(Nc3ccc(C4CCN(C)CC4)cc3)nc2n1-c1ccc(=O)n(C(C)C)n1 [Compound 191]	≤ 1	≤ 0.03
C=CCn1c(=O)c2cnc(Nc3ccc(C4CCNCC4)c(C)c3)nc2n1-c1ccc(=O)n(C(C)C)n1 [Compound 192]	≤ 1	≤ 0.03
